Here are results for 5 compounds from US11547681B2, “N-acylethanolamide derivatives and uses thereof” (ELIEM THERAPEUTICS, INC., priority 2016, dated 2023).

Structures are written as SMILES. Like-named read-outs stand apart in the source and are kept apart here.

The nature of data set [1]: in vitro. As for the experimental part:
(§1) The reaction mixture, minus cofactors, was prepared as described below. The test article was added into the reaction mixture at a final concentration of 1 μM. […] An aliquot of the reaction mixture (without cofactor cocktail) was equilibrated in a shaking water bath at 37° C. for 3 minutes. The reaction was initiated by the addition of cofactor cocktail, and the mixture was incubated in a shaking water bath at 37° C. Aliquots (100 μL) were withdrawn at 0, 10, 20, 30, and 60 minutes. All samples were immediately combined with 400 uL of icecold 50/50 acetonitrile/H2O containing 0.1% formic acid and internal standard to terminate the reaction. The samples were then mixed and centrifuged to precipitate proteins. Calibration standards were prepared in matched matrix. All samples and standards were assayed by LC-MS/MS using electrospray ionization for both the dosed prodrug I-9 and the expected drug (PEA). Analytical conditions are outlined in Appendix 4-1. The test article concentration at each time point was compared to the test article concentration at time 0 to determine the percent remaining at each time point. Half-lives were calculated using GraphPad software, fitting to single-phase exponential decay equation.
(§2) Reaction mixture, minus cofactors, was prepared as described below. Test article was added into the reaction mixture at a final concentration of 1 μM. […] An aliquot of the reaction mixture (without cofactor cocktail) was equilibrated in a shaking water bath at 37° C. for 3 minutes. The reaction was initiated by the addition of cofactor cocktail, and the mixture was incubated in a shaking water bath at 37° C. Aliquots (100 μL) were withdrawn at 0, 10, 20, 30, and 60 minutes. Test article samples were immediately combined with 300 μL of ice-cold acetonitrile containing 1% formic acid. Control samples were immediately combined with 400 μL of ice-cold 50/50 acetonitrile (ACN)/dH2O containing 0.1% formic acid and internal standard to terminate the reaction. Samples were then mixed and centrifuged to precipitate proteins. Calibration standards were prepared in matched matrix. Samples and standards were assayed by LC-MS/MS using electrospray ionization for both the dosed prodrug and the expected drug (PEA). Analytical conditions are outlined in Appendix 8-1. Test article concentration at each time point was compared to test article concentration at time 0 to determine the percent remaining at each time point. Halflives were calculated using GraphPad software, fitting to a single-phase exponential decay equation.
as §2, with “for 5” for “for 3”, “minutes. Reaction” for “minutes. The reaction”, “and” for “and the”, “both” for “both the”, “Appendix 10-1.” for “Appendix 8-1.”
(§3) Reaction mixture, minus cofactors, was prepared as described below.

A short description of data set [2]: in vitro. As for the experimental part: as §1, §2
as §2, with “for 5” for “for 3”, “minutes. Reaction” for “minutes. The reaction”, “and” for “and the”, “both” for “both the”, “Appendix 10-1.” for “Appendix 8-1.”
as §3
The source holds these as a separate data set.

Data set [3] can be described thus: in vitro. As to conditions: s9. As for the experimental part:
Reaction mixture, minus cofactors, was prepared as described below. Test article was added into the reaction mixture at a final concentration of 1 μM. […] An aliquot of the reaction mixture (without cofactor cocktail) was equilibrated in a shaking water bath at 37° C. for 3 minutes. The reaction was initiated by the addition of cofactor cocktail (see below), and the mixture was then incubated in a shaking water bath at 37° C. Aliquots (100 μL) were withdrawn 0, 10, 20, 30 and 60 minutes. Test article samples were immediately combined with 300 μL of ice-cold acetonitrile containing 1% formic acid. Control samples were immediately combined with 400 μL of ice-cold 50/50 acetonitrile (ACN)/dH2O containing 0.1% formic acid and internal standard to terminate the reaction. Samples were then mixed and centrifuged to precipitate proteins. Calibration standards were prepared in matched matrix. Samples and standards were assayed by LC-MS/MS using electrospray ionization for both the dosed prodrug and the expected drug (PEA). Analytical conditions are outlined in Appendix 8-1. Test article concentration at each time point was compared to the test article concentration at time 0 to determine the percent remaining at each time point. Half-lives were calculated using GraphPad software, fitting to a single-phase exponential decay equation.
Reaction mixture, minus cofactors, was prepared as described below. Test article was added into the reaction mixture at a final concentration of 1 μM. […] An aliquot of the reaction mixture (without cofactor cocktail) was equilibrated in a shaking water bath at 37° C. for 5 minutes. Reaction was initiated by the addition of cofactor cocktail (see below), and mixture was then incubated in a shaking water bath at 37° C. Aliquots (100 μL) were withdrawn at 0, 10, 20, 30, and 60 minutes. Test article samples were immediately combined with 300 μL of ice-cold acetonitrile containing 1% formic acid. Control samples were immediately combined with 400 μL of ice-cold 50/50 acetonitrile (ACN)/dH2O containing 0.1% formic acid and internal standard to terminate the reaction. Samples were then mixed and centrifuged to precipitate proteins. Calibration standards were prepared in matched matrix. Samples and standards were assayed by LC-MS/MS using electrospray ionization for both dosed prodrug and expected drug (PEA). Analytical conditions are outlined in Appendix 10-1. Test article concentration at each time point was compared to test article concentration at time 0 to determine the percent remaining at each time point. Half-lives were calculated using GraphPad software, fitting to a single-phase exponential decay equation.
The reaction mixture, minus cofactors, was prepared as described below. Test article was added into the reaction mixture at a final concentration of 1 μM. […] An aliquot of the reaction mixture (without cofactor cocktail) was equilibrated in a shaking water bath at 37° C. for 3 minutes. Reaction was initiated by the addition of cofactor cocktail (see below), and the mixture was then incubated in a shaking water bath at 37° C. Aliquots (100 μL) were withdrawn at 0, 10, 20, 30, and 60 minutes. Test article samples were immediately combined with 300 μL of ice-cold acetonitrile containing 1% formic acid. Control samples were immediately combined with 400 μL of ice-cold 50/50 acetonitrile (ACN)/dH2O containing 0.1% formic acid and internal standard to terminate the reaction. Samples were then mixed and centrifuged to precipitate proteins. Calibration standards were prepared in matched matrix. Samples and standards were assayed by LC-MS/MS using electrospray ionization for both dosed prodrug and expected drug (PEA). Analytical conditions are outlined in Appendix 13-1. Test article concentration at each time point was compared to the test article concentration at time 0 to determine the percent remaining at each time point.

A short description of data set [4]: in vitro. As for the experimental part: as §2
as §2, with “for 5” for “for 3”, “minutes. Reaction” for “minutes. The reaction”, “and” for “and the”, “both” for “both the”, “Appendix 10-1.” for “Appendix 8-1.”
(§4) Reaction mixture, minus cofactors, was prepared as described below. Test article was added into the reaction mixture at a final concentration of 1 μM. […] An aliquot of the reaction mixture (without cofactor cocktail) was equilibrated in a shaking water bath at 37° C. for 3 minutes. Reaction was initiated by the addition of cofactor cocktail, and the mixture was incubated in a shaking water bath at 37° C. Aliquots (100 μL) were withdrawn at 0, 10, 20, 30, and 60 minutes. Test article samples were immediately combined with 300 μL of ice-cold acetonitrile containing 1% formic acid. Control samples were immediately combined with 400 μL of ice-cold 50/50 acetonitrile (ACN)/dH2O containing 0.1% formic acid and internal standard to terminate the reaction. Samples were then mixed and centrifuged to precipitate proteins. Calibration standards were prepared in matched matrix. Samples and standards were assayed by LC-MS/MS using electrospray ionization for both dosed prodrug and expected drug (PEA). Analytical conditions are outlined in Appendix 13-1. Test article concentration at each time point was compared to test article concentration at time 0 to determine the percent remaining at each time point. Halflives were calculated using GraphPad software, fitting to a single-phase exponential decay equation.
This is another data set of the same source.

Data set [5] in a line: in vitro. As for the experimental part: as §2
as §4, with “for 5” for “for 3”, “and” for “and the”, “Appendix 10-1.” for “Appendix 13-1.”
as §4
The source holds these as a separate data set.

Data set [6] can be described thus: Simulated intestinal fluid stability, SIF containing pancreatin. The following applies: for % Remaining of Initial (n = 1): 1 μM; for Measured Concentration of Drug: test article dosed at 1 μM. The data set is classed as in vitro ADME. As for the experimental part: (§5) Studies were carried out in simulated intestinal fluid containing pancreatin. Simulated intestinal fluid was prepared by dissolving 6.8 g of monobasic potassium phosphate in 1.0 L of water. Pancreatin was then added to the solution and the pH was adjusted to 6.8. A DMSO stock was first prepared for the test articles. Aliquots of the DMSO solution were dosed into 300 μL of matrix, which had been pre-warmed to 37° C., at a final test article concentration of 1 μM. An individual tube was dosed for each time point. At each time point (0, 15, 30, 60, and 120 minutes), 900 μL of ice-cold acetonitrile containing 1.0% formic acid was added to an individual tube. Starting time for each tube was staggered such that all timepoints would finish at the same time. After the conclusion of the experiment, tubes were mixed and then centrifuged at 3,000 rpm for 10 minutes. Calibration standards were prepared in matched matrix. […] Analytical conditions are outlined in Appendix 11-1.
as §5, with “prepared for test articles.” for “prepared for the test articles.”, “Aliquots of DMSO solution” for “Aliquots of the DMSO solution”, “individual tube. The starting time for” for “individual tube. Starting time for”, “that all time points would finish” for “that all timepoints would finish”, “in Appendix 14-1.” for “in Appendix 11-1.”

A short description of data set [7]: Summary of half life data (Table A), matrix not stated. The data set is classed as in vitro ADME.
For data set [8] the following is noted: male, Sprague-Dawley, rat, in vivo, po.
Procedure: PEA was also dosed intravenously at 1 mg/kg. Blood samples were collected up to 8 hours post-dose, and PEA and PEA-prodrug plasma concentrations were determined with a qualified LC-MS/MS method. Pharmacokinetic analysis was conducted by a non-compartmental model using Phoenix WinNonlin v.6.4 software.
The IV dosing solution was prepared fresh on the day of dosing at 0.5 mg/mL in a vehicle comprised of 10% solutol HS15, 10% n-methylpyrrolidone (NMP), 10% polyethylene glycol 400 (PEG400), and 70% water. For PO dosing, torpac capsules were loaded with an appropriate amount of PEA, PEA-prodrug, or normast powder. […] The prodrug dose in group 5 was the maximum amount of powder that would fit into a single capsule.
The pharmacokinetics of PEA and the PEA-prodrug were evaluated in fasted male Sprague-Dawley rats. Rats were housed one per cage. Each rat was fitted with a jugular vein cannula (JVC) for blood collection. Rats intended for IV dosing were fitted with an additional JVC for dosing. Each study group was dosing in triplicate. Rats were fasted for a minimum of twelve hours prior to dosing. Food was returned at four hours post dosing. Animals had free access to water throughout the study.
Blood samples (˜300 μL) were collected from the rats via a JVC and placed into chilled polypropylene tubes containing sodium heparin as an anticoagulant, and 30 μL of 0.5 M citric acid. Samples were maintained chilled throughout processing. Blood samples were centrifuged at 4° C. and 3,000 g for 5 minutes. Plasma (˜150 μL) was then transferred to a chilled, labeled polypropylene tube containing 15 μL of 10% formic acid, placed on dry ice, and stored in a freezer maintained at −60° C. to −80° C.
Pharmacokinetic parameters were determined with Phoenix WinNonlin (v6.4) software using a non-compartmental model. Maximum plasma concentrations (C0) after IV dosing were estimated by extrapolation of the first two time points back to t=0. […] Area under the time concentration curve (AUC) was calculated using the linear trapezoidal rule with calculation to the last quantifiable data point, and with extrapolation to infinity if applicable. […] Mean residence time, MRT, was calculated by dividing the area under the moment curve (AUMC) by the AUC. Clearance (CL) was calculated from dose/AUC. Steady-state volume of distribution (Vss) was calculated from CL*MRT (mean residence time). Bioavailability was determined by dividing the individual PO dose normalized AUClast values by the average IV AUClast value. Any samples below the limit of quantitation were treated as zero for pharmacokinetic data analysis.
Measured concentrations of PEA in plasma samples were corrected by subtracting the concentration of PEA measured in the pre-dose samples. […] Any corrected values that were negative are reported as not determined (ND).
Data set [9] relates to patients with distal ulcerative colitis. As to conditions: cited from earlier work.

As usually defined, the microsomal CLint is the capacity of the preparation to metabolise the compound, expressed as a volume cleared per time. One may read the half-life as the time needed for the level to fall by half in the phase considered. Take `O=c1ccc2ccc(O)cc2o1` [Compound 7-HC, 7-hydroxycoumarin, reference compound]: the microsomal CLint was determined as 943 µL/min/mg in data set [1] (both, human, s9, Clint, control compound) and 20.1 µL/min/mg in data set [2] (male, Sprague-Dawley, rat, s9, Clint, control compound). Besides, the half-life stood at 13 min in data set [1] (both, human, s9, Half-life (min)); 7.3 min in [1] (both, human, s9, Half-life, control compound); 34 min in [2] (male, Sprague-Dawley, rat, s9, Half-life, control compound).

Turning to `O=c1ccc2ccc(O)cc2o1` [Compound 7-hydroxycourmann], the CLint in data set [3] (dog) stood at 0.512 ml/min/mg protein; in [3] (human) it was 0.0472 ml/min/mg protein; in [3] (mouse), 0.313 ml/min/mg protein; in data set [3] (rat) it was 0.362 ml/min/mg protein. The Half-life was determined as 1.4 min in data set [3] (dog), 15 min in [3] (human), 2.2 min in data set [3] (mouse) and 1.9 min in [3] (rat).

For `O=c1ccc2ccc(O)cc2o1` [Compound 7-hydroxycourmarin], the CLin stood at 0.138 ml/min/mg protein in [4], 0.0522 ml/min/mg protein in data set [1], 0.0770 ml/min/mg protein in data set [5] and 0.0242 ml/min/mg protein in [2]. For the same compound, the CLint in data set [4] (mouse, s9) came out at 0.160 ml/min/mg protein; in data set [1] (human, s9), 0.0698 ml/min/mg protein; in data set [5] (dog, s9), 0.0799 ml/min/mg protein; in data set [2] (rat, s9), 0.0320 ml/min/mg protein.

As to `CCCCCCCCCCCCCCCC(=O)NCCOC(=O)CCC(=O)OC[C@H](COC(=O)CCC)OC(=O)CCC` [Compound I-14], the “% Remaining of Initial (n = 1)” value in data set [6] (0 min) is on record as 100%; in data set [6] (15 min), 25%; in data set [6] (30 min) it was less than 2.2%; in [6] (60 min) it was less than 2.2%; in data set [6] (120 min) it was less than 2.2%. Further, the “Measured Concentration of Drug” value in data set [6] (0 min) is 0.19 µM; in [6] (15 min), 0.047 µM; in data set [6] (30 min), 0 µM; in data set [6] (60 min), 0 µM; in data set [6] (120 min), 0 µM. The compound also gave a half-life at 1 μM in [6] (simulated intestinal fluid containing pancreatin, pH 6.8, 1 μM) of 7.6 min. The compound further came in with a half-life in data set [7] of 7.5 min. The Bioavailability in data set [8] is on record as 4.39%. Also, in [8], the “Dose-normalized AUC∞ (PEA)” value was determined as 4.81 kg·ng·h/mL/mg.

For `CCCC(=O)[O-].[Na+]` [sodium butyrate], in data set [9] (after butyrate irrigation), the “discharge of blood ceased” value is on record as 9 of 10 and the overall crypt proliferation entry is recorded as “unchanged”. Also, in [9] (before 0.086±0.019), the “upper crypt-labeling index after butyrate irrigation” value is 0.032±0.003. In addition, the “histological degree of inflammation after butyrate irrigation” value in [9] (before 2.4±0.3) was 1.5±0.3. Moreover, in data set [9] (before 6.5±0.4), the “endoscopic score after butyrate irrigation” value is recorded as 3.8±0.8. Further, the “stool frequency after butyrate irrigation” value in data set [9] (sodium butyrate 100 mmol/L enemas 2 weeks, 10 patients, before 4.7±0.5) is given as 2.1±0.4 n/day.
